# Results from patent US12247004B2, “2-amino-N-(amino-oxo-aryl-lambda6-sulfanylidene)acetamide compounds and their therapeutic use” (Oxford Drug Design Limited, priority 2019, dated 2025).
# Like-named read-outs stand apart in the source and are kept apart here.
# Assays:
# [1] = target: Isoleucyl-tRNA synthetase (IleRS) (Escherichia coli (strain K12), UniProt P00956); assay: Isoleucyl-tRNA synthetase enzyme inhibition (AMP-Glo; single point % inhibition at 100 μM and IC50); assay type: biochemical; conditions: E. coli IleRS; read-out: Enzyme Inhibition - IC50, E. coli IleRS
# Source text: Study 1—Enzyme Inhibition
# The aminoacylation reaction catalyzed by aminoacyl-tRNA synthetases (aaRS) takes place in two steps. In the first step, aaRS activates its cognate amino acid with ATP; and in the second step the activated amino acid is loaded to its corresponding tRNA. This reaction can be summarized as follows: aaRS+aa+ATP=aaRS-aa-AMP+PPi aaRS-aa-AMP+tRNA=aa-tRNA+AMP+aaRS […]
# wherein: aaRS, aminoacyl-tRNA synthetase; aa, amino acid; aaRS-aa-AMP, enzyme-bound to aminoacyl-adenylate; AMP, adenosine monophosphate; aa-tRNA, aminoacyl-tRNA, PPi, inorganic pyrophosphate.
# Isoleucyl-tRNA Synthetase a. Single Point Percentage Inhibition
# The activity of the pathogenic aaRSs was monitored by measuring AMP production using the commercial kit AMP-Glo (Promega, Madison, USA).
# Ligand stock solutions were prepared in 100% DMSO at 10 mM concentration. An assay buffer consisting of 100 mM Tris HCl pH 7.6, 40 mM MgCl, 20 mM KCl and 150 mM NaCl was prepared in dH2O. An enzyme solution containing 51.77 μM IleRS was prepared in assay buffer to provide 30 nM final assay concentration and 75 nM reservoir concentration for a 1:2.5 dilution in the assay. A substrate solution was also prepared in assay buffer with 50 mM L-isoleucine, 10 mM ATP and 100 mg/mL tRNA. A final assay concentration of 500 μM L-isoleucine, 5 μM ATP and 1 mg/mL tRNA and reservoir concentration of 833.33 μM L-isoleucine, 8.33 μM ATP and 1.67 mg/mL tRNA was used for a 1:1.66 dilution in assay.
# Enzyme percentage inhibition values were recorded in triplicate at a single point concentration of 100 μM.
# Using the same enzymatic assay in a 384-well plate format, ten point concentration response curves were generated for each compound using a top concentration of 100 μM. The known inhibitor, IleAMS was used as a positive control for the IleRS assay. 100% DMSO was used as a negative control. The IC50 was calculated based on non-linear regression analysis.
# [2] = tested on: bacteria (ATCC reference strains); assay: Antibacterial activity, MIC by broth micro-dilution (CLSI)
# [3] = target: Leucyl-tRNA synthetase (LeuRS) (Escherichia coli (strain K12), UniProt P07813); assay: Leucyl-tRNA synthetase enzyme inhibition (AMP-Glo; single point % inhibition at 100 μM and IC50); assay type: biochemical
# E. coli UT189 = assay: Efficacy in a murine model of urinary tract infection (microbial burden in urine, bladder, kidney); assay type: in vivo; conditions: Experiment 2, mouse UTI
# Protocol: All animal studies were performed under UK Home Office License PA67E0BAA (protocol E9 for UTI model) with local ethical committee clearance. All studies were performed by technicians who have completed parts A, B and C of the UK Home Office Personal License course and hold current personal licenses. All experiments were performed in dedicated Biohazard 2 facilities (the site holds a Certificate of Designation). Female mice used in these studies were supplied by Janvier laboratories and were specific pathogen free. The strain of mouse used was C3H/HeNRj, which is a well characterized inbred strain. Mice were 16-20 g on receipt and were allowed to acclimatize for at least 7 days prior to any intervention. Five days prior to infection mice were transferred onto drinking water containing 5% glucose. […] It was stored at 4° C. between doses. Test articles were prepared by solubilising in water for injection, taking the salt correction factor into account. […] Mice (n=6 per group) were infected by directly administering 0.05 mL of inoculum via the urethra into the bladder under parenteral anaesthesia. Drinking water was withheld two hours pre-infection and bladders were emptied prior to infection. Once infected, infection catheters were left in the urinary tract for 10 minutes to reduce the risk of the organism flowing back out. The mice were monitored at a frequency appropriate for their clinical condition. Mouse weights were recorded at least once daily both to ensure animals remained within ethical limits and to monitor efficacy of treatment. Twenty-four hours post infection, urine was collected from pre-treatment animals and used to assess the infection level. Urine samples were quantitatively cultured onto MacConkey's agar plates and incubated at 37° C. for 24 hours before colonies were counted. In addition, five mice were euthanised by pentobarbitone overdose to provide a 24 hour pre-treatment control group. Forty-eight hours post-infection, urine was collected from all mice. Seventy-two hours post infection, the clinical condition and body weight of all remaining animals was assessed and urine samples were collected. Animals were then euthanised by pentobarbitone overdose and kidneys and bladders were removed and weighed. Tissue samples were homogenized using a Precellys 24 dual bead beater in 2 mL ice cold sterile phosphate buffered saline. Homogenates and urine samples were quantitatively cultured onto MacConkey's agar plates and incubated at 37° C. for 24 hours before colonies were counted. Data Analysis The data from the culture burdens were analysed using appropriate non-parametric statistical models (Kruskal-Wallis using Conover-Inman to make all pairwise comparisons between groups) with StatsDirect software, and compared to pretreatment and vehicle controls.
# [4] = Human cell viability / cytotoxicity (CellTiter-Glo, 24 hours); assay type: cell-based; conditions: human, HepG2 cells (ATCC HB-8065); HepG2 ATCC HB-8065, 24 hours; read-out: Cytotoxicity in HepG2 ATCC HB-8065 Cell Line, IC50
# Summary of the method: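 HepG2 cells (15,000/well, MEM with 1% NEAA and 1% pyruvate) were grown 2 days, then exposed to compounds in duplicate for 24 h at 1.28% DMSO. Viability was read as ATP by CellTiter-Glo luminescence relative to DMSO-only wells. IC50 is in μg/mL.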
# E. coli ATCC 25922 = assay: Efficacy in a murine model of disseminated infection (microbial burden in blood, kidney, spleen); assay type: in vivo; conditions: mouse; 30 mg/kg sc once at 1 hr post-infection; harvest 5 hr
# [5] = Escherichia coli, ATCC25922, read-out: Antibacterial Activity (MIC), A = E. coli ATCC 25922
# [6] = Acinetobacter baumannii, read-out: Antibacterial Activity (MIC), E = A. baumannii B1931
# [7] = Enterobacter cloacae, read-out: Antibacterial Activity (MIC), B = Enterobacter cloacae B1966
# [8] = Klebsiella pneumoniae, ATCC700603, read-out: Antibacterial Activity (MIC), C = K. pneumoniae ATCC 700603
# [9] = Pseudomonas aeruginosa, ATCC27853, read-out: Antibacterial Activity (MIC), D = P. aeruginosa ATCC 27853
# [10] = 10 mg/kg/dose iv at 24, 36, 48 and 60 hr
# Sequence of Isoleucyl-tRNA synthetase (IleRS) (P00956 whole entry, looked up): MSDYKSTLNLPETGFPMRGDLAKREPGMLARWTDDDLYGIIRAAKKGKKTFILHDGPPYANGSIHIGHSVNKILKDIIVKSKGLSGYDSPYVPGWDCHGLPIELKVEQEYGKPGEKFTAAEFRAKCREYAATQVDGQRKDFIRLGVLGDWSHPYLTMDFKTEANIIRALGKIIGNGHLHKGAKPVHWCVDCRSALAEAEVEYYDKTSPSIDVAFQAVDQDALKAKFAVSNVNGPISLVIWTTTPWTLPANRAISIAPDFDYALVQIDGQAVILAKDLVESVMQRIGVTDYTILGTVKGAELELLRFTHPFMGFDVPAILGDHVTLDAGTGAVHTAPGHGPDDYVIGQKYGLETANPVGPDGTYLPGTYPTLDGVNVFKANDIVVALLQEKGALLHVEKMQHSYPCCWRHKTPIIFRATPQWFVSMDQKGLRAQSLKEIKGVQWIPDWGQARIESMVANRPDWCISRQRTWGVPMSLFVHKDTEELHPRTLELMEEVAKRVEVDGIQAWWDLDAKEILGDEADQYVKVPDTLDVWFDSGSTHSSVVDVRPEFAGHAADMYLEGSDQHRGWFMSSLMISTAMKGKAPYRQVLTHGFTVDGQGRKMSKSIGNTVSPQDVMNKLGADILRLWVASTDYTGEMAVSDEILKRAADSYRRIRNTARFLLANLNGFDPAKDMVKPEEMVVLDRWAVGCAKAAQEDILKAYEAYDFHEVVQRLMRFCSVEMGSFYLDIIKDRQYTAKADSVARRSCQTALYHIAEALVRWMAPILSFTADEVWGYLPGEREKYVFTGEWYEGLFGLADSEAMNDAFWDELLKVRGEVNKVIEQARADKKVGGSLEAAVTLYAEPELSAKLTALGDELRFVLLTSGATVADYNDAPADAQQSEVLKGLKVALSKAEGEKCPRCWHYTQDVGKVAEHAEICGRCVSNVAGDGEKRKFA
# Sequence of Leucyl-tRNA synthetase (LeuRS) (P07813 whole entry, looked up): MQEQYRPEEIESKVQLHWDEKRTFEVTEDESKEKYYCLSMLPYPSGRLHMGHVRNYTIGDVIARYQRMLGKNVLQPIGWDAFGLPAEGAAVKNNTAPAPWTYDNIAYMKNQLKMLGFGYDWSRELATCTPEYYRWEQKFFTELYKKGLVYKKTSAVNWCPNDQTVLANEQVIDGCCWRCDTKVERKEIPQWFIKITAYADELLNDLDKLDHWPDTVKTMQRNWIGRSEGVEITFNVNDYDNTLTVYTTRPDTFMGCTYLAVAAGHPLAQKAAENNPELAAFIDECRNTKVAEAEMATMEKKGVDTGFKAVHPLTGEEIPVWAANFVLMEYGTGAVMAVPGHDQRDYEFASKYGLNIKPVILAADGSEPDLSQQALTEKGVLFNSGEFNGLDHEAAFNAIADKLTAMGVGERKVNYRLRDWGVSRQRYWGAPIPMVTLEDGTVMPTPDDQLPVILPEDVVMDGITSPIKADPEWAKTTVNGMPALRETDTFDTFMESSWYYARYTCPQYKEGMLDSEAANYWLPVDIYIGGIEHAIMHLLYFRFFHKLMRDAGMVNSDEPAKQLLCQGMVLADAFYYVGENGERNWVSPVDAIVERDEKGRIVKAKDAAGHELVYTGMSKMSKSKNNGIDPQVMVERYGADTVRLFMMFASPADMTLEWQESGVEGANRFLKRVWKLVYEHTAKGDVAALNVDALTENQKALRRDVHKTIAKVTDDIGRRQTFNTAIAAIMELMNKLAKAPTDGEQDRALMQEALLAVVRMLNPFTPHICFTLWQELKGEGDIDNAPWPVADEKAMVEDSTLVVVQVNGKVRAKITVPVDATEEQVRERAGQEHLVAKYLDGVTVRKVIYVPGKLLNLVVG
smiles,measurement,setting,value
CC[C@H](C)[C@H](N)C(=O)N=[S@@](N)(=O)c1cscc1C.Cl [ANASIA-079-2],IC50,[1],372 nM
same,MIC,[2]; [5],64 µg/mL
CC[C@H](C)[C@H](N)C(=O)N=S(N)(=O)c1csc2ccsc12 (some centres unmarked) [ANASIA-084],IC50,[1],2820 nM
CC[C@H](C)[C@H](N)C(=O)N=[S@](N)(=O)c1ccc2c(c1)OCO2 [ANASIA-115-1],IC50,[1],4700 nM
CC[C@H](C)[C@H](N)C(=O)N=[S@](N)(=O)c1scc(Br)c1Br [ANASIA-116-1],IC50,[1],3830 nM
CC[C@H](C)[C@H](N)C(=O)N=[S@@](N)(=O)c1scc(Br)c1Br [ANASIA-116-2],IC50,[1],950 nM
CC1CCC(N)(C(=O)N=S(N)(=O)c2ccccc2)C1 (centres unmarked) [ANASIA-123],IC50,"[3]; E. coli LeuRS, read-out: Enzyme Inhibition - IC50, E. coli LeuRS",4870 nM
same,IC50,[1],> 100000 nM
CC(C)C[C@H](N)C(=O)N=[S@](N)(=O)c1cc(Cl)cs1.Cl [ANASIA-124-1],IC50,[3],21.3 nM
same,"Reduction in burden from vehicle control, Bladder 72 hr",E. coli UT189; 15 mg/kg/dose sc every 4 hours,1.24 Log10 cfu/g or mL
same,"Reduction in burden from vehicle control, Kidney 72 hr",E. coli UT189; 15 mg/kg/dose sc every 4 hours,1.60 Log10 cfu/g or mL
same,"Reduction in burden from vehicle control, Urine 48 hr",E. coli UT189; 15 mg/kg/dose sc every 4 hours,0.71 Log10 cfu/g or mL
same,"Reduction in burden from vehicle control, Urine 72 hr",E. coli UT189; 15 mg/kg/dose sc every 4 hours,0.66 Log10 cfu/g or mL
same,"Reduction in burden from vehicle control, Bladder 72 hr",E. coli UT189; 45 mg/kg/dose sc every 4 hours,1.38 Log10 cfu/g or mL
same,"Reduction in burden from vehicle control, Kidney 72 hr",E. coli UT189; 45 mg/kg/dose sc every 4 hours,2.40 Log10 cfu/g or mL
same,"Reduction in burden from vehicle control, Urine 48 hr",E. coli UT189; 45 mg/kg/dose sc every 4 hours,1.85 Log10 cfu/g or mL
same,"Reduction in burden from vehicle control, Urine 72 hr",E. coli UT189; 45 mg/kg/dose sc every 4 hours,1.21 Log10 cfu/g or mL
same,MIC,[2]; [6],8 µg/mL
same,MIC,[2]; [7],8 µg/mL
same,MIC,[2]; [5],0.25 µg/mL
same,MIC,"[2]; Escherichia coli, BAA2469, read-out: Antibacterial Activity (MIC), G = E. coli BAA-2469",1.59 µg/mL
same,MIC,[2]; [8],16 µg/mL
same,MIC,[2]; [9],32 µg/mL
CC[C@H](C)[C@H](N)C(=O)N=S(N)(=O)c1cc2sccc2s1 (some centres unmarked) [ANASIA-138],IC50,[1],383 nM
same,IC50 at 24 h,[4],> 64 µg/mL
same,MIC,[2]; [6],> 64 µg/mL
same,MIC,[2]; [7],> 64 µg/mL
same,MIC,[2]; [5],> 64 µg/mL
same,MIC,"[2]; Haemophilus influenzae, ATCC49247, read-out: Antibacterial Activity (MIC), F = H. influenzae ATCC 49247",16 µg/mL
same,MIC,[2]; [8],> 64 µg/mL
same,MIC,[2]; [9],> 64 µg/mL
O=C(O)c1cn(C2CC2)c2cc(N3CCNCC3)c(F)cc2c1=O [Cinprofloxacin],"Reduction in burden from vehicle control, Bladder 72 hr",E. coli UT189; [10],2.74 Log10 cfu/g or mL
same,"Reduction in burden from vehicle control, Kidney 72 hr",E. coli UT189; [10],4.12 Log10 cfu/g or mL
same,"Reduction in burden from vehicle control, Urine 48 hr",E. coli UT189; [10],5.32 Log10 cfu/g or mL
same,"Reduction in burden from vehicle control, Urine 72 hr",E. coli UT189; [10],4.76 Log10 cfu/g or mL
"CN(C)c1cc(NC(=O)CNC(C)(C)C)c(O)c2c1C[C@H]1C[C@H]3[C@H](N(C)C)C(O)=C(C(N)=O)C(=O)[C@@]3(O)C(O)=C1C2=O [Tigecycline, tigecycline, reference compound]","Reduction in burden from vehicle control, Blood",E. coli ATCC 25922,5.13 Log10 cfu/g or mL
same,"Reduction in burden from vehicle control, Kidney",E. coli ATCC 25922,5.62 Log10 cfu/g or mL
same,"Reduction in burden from vehicle control, Spleen",E. coli ATCC 25922,5.15 Log10 cfu/g or mL
